System: 186277-243-T-J2-PDC complex spheroid viability
Experiment: Anticancer human tumor 186277-243-T-J2-PDC patient-derived colon adenocarcinoma cell line growth inhibition [POLQ]
Settings: for IC50: curve of first compound; for viability, T/C: stronger effect = lower value
Procedure: Multicellular complex tumor spheroid response to Polymerase (POL) inhibitors (novobiocin, ART-558, RP6685) in combination with a variety of drugs and investigational agents in selected tumor cell lines
The POL inhibitors (novobiocin, ART-558, and RP6685) were evaluated both individually and in combination with standard of care and investigational anticancer small molecules within a complex spheroid model of solid tumors. . Complex spheroids include a stromal component modeled by human endothelial cells (HUVEC) and fibroblasts modeled by human mesenchymal stem cells (MSCs). The concentration ranges selected for each drug and investigational agent were based upon clinically achievable concentrations if the clinical Cmax of the agent was known.
Compounds. The drugs and investigational agents: novobiocin (NSC847541), ART-558 (NSC835418), RP-6685 (NSC848927), peposertib (NSC802822), ceralasertib (NSC780249), elimusertib (NSC800525), camonsertib (NSC841442), AZD-1390 (NSC803789), olaparib (NSC753686), talazoparib (NSC767125), rucaparib (NSC756644), sotorasib (NSC818433), MRTX-1133 (NSC836407), SN-38 (NSC673596), topotecan (NSC609699), epotoside (NSC141540), doxorubicin (NSC123127), gemcitabine (NSC613327), 5-fluorouracil (NSC19893), paclitaxel (NSC125973), vemurafenib (NSC761431), MSA-2 (NSC828583), SN-011 (NSC837082), adavosertib (NSC754352), prexasertib (NSC758257), carboplatin (NSC241240) and oxaliplatin (NSC266046), were obtained from the National Cancer Institute (NCI) Developmental Therapeutics Program Chemical Repository (21). The FDA-approved anticancer drug set is available from the Developmental Therapeutics Program at https://dtp.cancer.gov/organization/dscb/obtaining/. […] The stock solutions were prepared in dimethyl sulfoxide (DMSO, Sigma-Aldrich, St. Louis, MO, cat. D2650), except for the platinum compounds which were prepared in saline (Quality Biological, Gaithersburg, MD, cat. 114-055-101), at 800-fold the tested concentration and stored at -70 degrees C prior to their use. All drugs and investigational agents were tested over a range starting from a high concentration at or near the clinical Cmax and decreasing in half-log increments. If the clinical Cmax for an agent had not been determined, the highest concentration tested was 10 microM, except for SN-38, which was tested at a high concentration of 1 microM.
Cell Culture. All cells were maintained in an incubator at 37 degrees C and 5% CO2 with 95% humidity. The PDC lines were cultured according to standard operating procedures established by the NCI PDMR (https://pdmr.cancer.gov). Table 3 of the manuscript, lists the cell lines along with the number of the three cell types plated to form the mct-spheroids and media for tumor cell growth. After thawing, all PDC lines, except 997537-175-T-J1-PDC and 415267-285-R-J2-PDC, were cultured in Matrigel-coated flasks prepared with a working solution of 1X Ham's F-12 nutrient mix, without supplementation (Thermo Fisher Scientific, cat. 11765054), 100 U/mL penicillin-streptomycin (Thermo Fisher Scientific, cat. 15140122), and 2.5% Matrigel (Corning Inc., Corning, NY, cat. 354248) for the first three passages. The two PDC lines 997537-175-T-J1-PDC and 415267-285-R-J2-PDC were cultured on uncoated flasks. The 857933-349-R-J2-PDC line was cultured in 6C/Colon 1B media containing advanced DMEM/F-12 (Thermo Fisher Scientific, cat. 12634028), 10 mM HEPES (Thermo Fisher Scientific, cat. 15630080), 1X GlutaMAX supplement (Thermo Fisher Scientific, cat. 35050061), 0.1 mg/mL primocin (InvivoGen, San Diego, CA, cat. ant-pm-2), 10% defined fetal bovine serum, heat inactivated (HyClone Laboratories Inc., Logan, UT, cat. SH30070.03HI), 50% L-WRN conditioned media (ATCC, cat. CRL-3276), 1.25 mM N-Acetyl-L-cysteine (Sigma-Aldrich, cat. A9165), 10 mM nicotinamide (Sigma-Aldrich, cat. N0636), 1X B-27 supplement (Thermo Fisher Scientific, cat. 17504044), 1X N-2 supplement (Thermo Fisher Scientific, cat. […]
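Note: spheroids exposed to compounds for seven days.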
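Throughout, for viability, T/C: 100% = DMSO vehicle control viability.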

COc1cccc2c1C(=O)c1c(O)c3c(c(O)c1C2=O)CC(O)(C(=O)CO)CC3OC1CC(N)C(O)C(C)O1 (configuration not stated) + COC1C(OC(N)=O)C(O)C(Oc2ccc3c(O)c(NC(=O)c4ccc(O)c(CC=C(C)C)c4)c(=O)oc3c2C)OC1(C)C
IC50 (second compound 0.0316 µM): 77.7 nM | IC50 (second compound 0.1 µM): 88.7 nM | IC50 (second compound 0.316 µM): 91.6 nM | IC50 (second compound 1 µM): 92.4 nM | IC50 (second compound 3.16 µM): 92.1 nM | IC50 (second compound 10 µM): 86.4 nM | viability, T/C (second compound 0.0316 µM, first compound 0.0316 µM): 89.2% | viability, T/C (second compound 0.0316 µM, first compound 0.1 µM): 38.9% | viability, T/C (second compound 0.0316 µM, first compound 0.316 µM): 9.13% | viability, T/C (second compound 0.0316 µM, first compound 1 µM): 0.32% | viability, T/C (second compound 0.0316 µM, first compound 3.16 µM): 0.18% | viability, T/C (second compound 0.0316 µM, first compound 10 µM): 0.46% | viability, T/C (second compound 0.1 µM, first compound 0.0316 µM): 94.1% | viability, T/C (second compound 0.1 µM, first compound 0.1 µM): 44.9% | viability, T/C (second compound 0.1 µM, first compound 0.316 µM): 8.43% | viability, T/C (second compound 0.1 µM, first compound 1 µM): 0.24% | viability, T/C (second compound 0.1 µM, first compound 3.16 µM): 0.13% | viability, T/C (second compound 0.1 µM, first compound 10 µM): 0.51% | viability, T/C (second compound 0.316 µM, first compound 0.0316 µM): 90.7% | viability, T/C (second compound 0.316 µM, first compound 0.1 µM): 46.6% | viability, T/C (second compound 0.316 µM, first compound 0.316 µM): 9.28% | viability, T/C (second compound 0.316 µM, first compound 1 µM): 0.18% | viability, T/C (second compound 0.316 µM, first compound 3.16 µM): 0.13% | viability, T/C (second compound 0.316 µM, first compound 10 µM): 0.36% | viability, T/C (second compound 1 µM, first compound 0.0316 µM): 92.1% | viability, T/C (second compound 1 µM, first compound 0.1 µM): 46.9% | viability, T/C (second compound 1 µM, first compound 0.316 µM): 9.15% | viability, T/C (second compound 1 µM, first compound 1 µM): 0.2% | viability, T/C (second compound 1 µM, first compound 3.16 µM): 0.16% | viability, T/C (second compound 1 µM, first compound 10 µM): 0.36% | viability, T/C (second compound 3.16 µM, first compound 0.0316 µM): 88.9% | viability, T/C (second compound 3.16 µM, first compound 0.1 µM): 47% | viability, T/C (second compound 3.16 µM, first compound 0.316 µM): 8.15% | viability, T/C (second compound 3.16 µM, first compound 1 µM): 0.24% | viability, T/C (second compound 3.16 µM, first compound 3.16 µM): 0.2% | viability, T/C (second compound 3.16 µM, first compound 10 µM): 0.37% | viability, T/C (second compound 10 µM, first compound 0.0316 µM): 95.8% | viability, T/C (second compound 10 µM, first compound 0.1 µM): 43.3% | viability, T/C (second compound 10 µM, first compound 0.316 µM): 8.67% | viability, T/C (second compound 10 µM, first compound 1 µM): 0.31% | viability, T/C (second compound 10 µM, first compound 3.16 µM): 0.31% | viability, T/C (second compound 10 µM, first compound 10 µM): 0.68%

— PubChem BioAssay AID1963854 (Molecular Pharmacology Branch, DTP, NCI, 2024)
